Results on 13 compounds are retold here after patent US5510375A, “Coumarin derivatives as protease inhibitors and antiviral agents” (Warner-Lambert Company, priority 1993, dated 1996).

In the first test the test system is HIV-1iiib. The experiment in a line: Anti-HIV-1 activity in H9 cells (acute infection, reverse transcriptase assay). In kind it is cell-based. The settings on record: Human immunodeficiency virus 1, acute HIV-1iiib infection, multiplicity of infection 0.01, 4 and 7 days post infection, 0.2% DMSO, read-out: Therapeutic Concentration for 50% Protection of Cells. Here is the method: Using the general methods of Pauwels et al., (J. Virol. Methods, 16: 171-185 (1987) and Mann et al. (AIDS Research and Human Retroviruses, 253-255 (1989)) anti-viral assays of acute HIV-1 infection were performed in the H9 cell line. Cultures were batch infected in 1 ml of RPM1 1640 media/10% fetal calf serum containing 10^7 cells and 10^5 infectious doses of HIV-1iiib for an effective multiplicity of infection of 0.01. After 2 hours of viral absorption, cells were washed once and plated in 96-well microtiter plates at a density of 10^4 cells per well. Test compounds were added to produce the desired concentration of drug and 0.2% DMSO in a final volume of 200 μl. Uninfected parallel cultures were maintained for XTT cytotoxicity assay at 7 days post infection. Cultures were tested for viral replication by reverse transcriptase assay at 4 and 7 days post infection.
With `CCOC(=O)c1cccc(OCCCc2c(O)c3ccccc3oc2=O)c1` [Example 8, Ethyl 3-3-(4-hydroxy-2-oxo-2H-1-benzopyran-3-yl)propoxy!benzoate], the EC50 came out at 58 µM.
Still for that read-out and setting: the same measure for `COc1ccccc1CCCCc1c(O)c2ccccc2oc1=O` [Example 13, 4-Hydroxy-3-4-(2-methoxyphenyl)butyl!-2H-1-benzopyran-2-one]: 13 µM.

Another test concerns HIV.
Assay: not given
The following applies: R. Nagorny et al., AIDS, 7: 129-130 (1993); cited from earlier work.
Consider `CC(=O)CC(c1ccccc1)c1c(O)c2ccccc2oc1=O` (stereo not drawn) [Warfarin, 3-(α-acetonylbenzyl)4-hydroxycoumarin], for which the “inhibiting cell-free and cell-mediated HIV infection” value was “inhibiting cell-free and cell-mediated HIV infection”.

In the next test the target is T1, HIV-1 Protease (Human immunodeficiency virus type 1 group M subtype B, UniProt P04585).
T1 construct: purchased Bachem Bioscience Inc
Briefly: HIV Protease Inhibition (hydrolysis of undecapeptide Substrate III, HPLC). The format is biochemical.
Conditions: not given
The procedure: 1.0 mM dithiothreitol (DTT) was prepared fresh daily in 0.1% polyethylene glycol (mw 8000) 80 mM NaOAc, 160 mM NaCl, 1.0 mM EDTA, and brought to pH 4.7 with HCl.
The enzyme is obtained from Bachem Bioscience Inc. The undiluted enzyme is thawed from -80° C. and diluted 50-fold with DTT buffer. The solution is always kept at 0° C. on ice water and used in the experiment within 20 minutes after thawing.
Substrate III from Bachem Bioscience Inc. is the undecapeptide H-His-Lys-Ala-Arg-Val-Leu-p-Nitrophenylalanine-Glu-Ala-Norleucine-Ser-NH2 (>97% purity). A 200 μM stock solution in DTT buffer is prepared and stored on ice. Substrate solution is prepared fresh daily.
10 mM inhibitor (I) in dimethyl sulfoxide (DMSO) is diluted to 200 μM with DTT buffer. From the 200 μM stock solution is made a 10 μM stock solution with 2% DMSO in DTT buffer. The two inhibitor solutions are used to make final (I)=100, 50, 20, 10, 5, 0.5 and 0 μM with 2% DMSO in DTT buffer in each reaction well (total inhibitor volume of 50 μl).
To each reaction well is added 20 μl of substrate (final concentration of 40 μM), 50 μl of inhibitor (at a concentration such that final dilution will produce the test concentration) and 20 μl of DTT buffer. The reaction plate (96 wells) is incubated at 37° C. for at least 5 minutes.
10 μl of the diluted protease is added to the reaction well while the reaction plate is shaking. Once shaken for 10 seconds, the plate is returned to the heating block at 37° C. (Final reaction volume=100 μl)
The reaction is incubated for 5 minutes at 37° C. The reaction is stopped by placing the reaction plate on the shaker and adding 20 μl of 10% trifluoroacetic acid (TFA) and shaking for 10 seconds. The amount of proteolysis is then determined by separation of noncleaved substrate and two cleaved products with reverse-phase HPLC, while measuring absorbance at 220 nm to determine the relative peak areas of the three components. The relative peak areas are used to calculate % conversion to product as a function of inhibitor concentration. The data is plotted as % Control (the ratio of % conversion in the presence and absence of inhibitor×100) versus inhibitor concentration and fit with the equation Y=100/1+(X/IC50)^A, where IC50 is the inhibitor concentration at 50% inhibition and A is the slope of the inhibition curve.
The compound `O=c1oc2ccccc2c(O)c1CCCOc1cccc(Cl)c1` [Example 7, 3-3-(3-Chlorophenoxy)propyl!-4-hydroxy-2H-1-benzopyran-2-one] gave an IC50 of 1300 nM.
On the same count and under the same terms, the same measure for `COc1ccc2c(O)c(CCCCc3ccccc3OC)c(=O)oc2c1` [Example 22, 4-Hydroxy-7-methoxy-3-4-(2-methoxyphenyl)butyl!-2H-1-benzopyran-2-one]: 1400 nM.
On the same count and under the same terms, the value for `N#Cc1cccc(OCCCc2c(O)c3ccccc3oc2=O)c1` [Example 37, 3-3-(3-Cyanophenoxy)propyl!-4-hydroxy-2H-1-benzopyran-2-one] was 600 nM.
Consider `O=c1oc2ccccc2c(O)c1C(SC1CCCCC1)c1ccccc1` (stereo not drawn) [Example 42, 3-(Cyclohexylthio)phenylmethyl!-4-hydroxy-2H-1-benzopyran-2-one], for which the IC50 came out at 400 nM.

Staying with this test, now noted: pH 4.7, 37° C., 40 μM substrate, 2% DMSO, 5 minutes; read-out: 50% Inhibition Concentration.
`COc1ccc(OCCCc2c(O)c3ccccc3oc2=O)cc1` [Example 4, 4-Hydroxy-3-3-(4-methoxyphenoxy)propyl!-2H-1-bensopyran-2-one]: the IC50 came to 1900 nM.
The same measure, in the same setting: the value for `O=C(O)c1cccc(OCCCc2c(O)c3ccccc3oc2=O)c1` [Example 9, 3-3-(4-Hydroxy-2-oxo-2H-1-benzopyran-3-yl)propoxy!benzoic acid] was 5000 nM; that for `O=c1oc2ccccc2c(O)c1CCCOc1cccc(CO)c1` [Example 10, 4-Hydroxy-3-3-(3-hydroxymethylphenoxy)propyl!-2H-1-benzopyran-2-one] was 1200 nM.
Same read-out and setting: the same measure for `COc1ccccc1CCCCc1c(O)c2ccccc2oc1=O` [Example 13, 4-Hydroxy-3-4-(2-methoxyphenyl)butyl!-2H-1-benzopyran-2-one]: 1700 nM; for `O=c1oc2ccccc2c(O)c1CCCCc1ccccc1O` [Example 14, 4-Hydroxy-3-4-(2-hydroxyphenyl)butyl!-2H-1-benzopyran-2-one]: 2800 nM.
The same measure, in the same setting: the same measure for `COc1ccccc1CCCCc1c(O)c2cccc(C)c2oc1=O` [Example 23, 4-Hydroxy-3-4-(2-methoxyphenyl)butyl!-8-methyl-2H-1-benzopyran-2-one]: 5000 nM.
As for `COc1ccccc1CCCCc1c(O)c2ccc(O)cc2oc1=O` [Example 43, 4,7-Dihydroxy-3-4-(2-methoxyphenyl)butyl!-2H-1-benzopyran-2-one], the IC50 worked out at 500 nM.

Staying with this test, now noted: read-out: 50% Inhibition Concentration.
As for `CCOC(=O)c1cccc(OCCCc2c(O)c3ccccc3oc2=O)c1` [Example 8, Ethyl 3-3-(4-hydroxy-2-oxo-2H-1-benzopyran-3-yl)propoxy!benzoate], the IC50 turned out to be 500 nM.
